This data set in a line: gradient 5% acetonitrile 3 min, to 50% in 2 min, to 85% in 15 min, held 3 min, 100 µL/min. The following applies: column: Zorbax Extend-C18 2.1 x 50 mm; eluents: water / acetonitrile, 0.1% formic acid. An outline of the steps: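 Standards, all pure, were combined into mixtures of ~100 molecules and run at 100 μL/min on a Zorbax Extend-C18 column (2.1 × 50 mm, 1.8 μm) with water and acetonitrile, each containing 0.1% formic acid. A coupled quadrupole time-of-flight mass spectrometer operated in positive and negative ionization mode. Retention time values come from computationally picked adduct peaks, each inspected manually.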
For the compound `Cn1c(C2CCN(C(=O)Nc3cccc(C(F)(F)F)c3)CC2)cc(=O)n2nccc12`, the RP-LC retention time was determined as 717 s.
For `O=C(Nc1cccc(F)c1)c1nnc(CCCC(=O)N2CCN(c3ccccn3)CC2)s1` the value was 646 s; for `CCc1cccc(C)c1Nc1c(-c2ccc(C(=O)OC)cc2)nc2cnccn12`, 982 s.
In turn, `COC(=O)c1ncn2c1C(=O)N(CCc1ccccc1)C(C)(C(=O)NC1CCCC1)C2` (stereo not given) came in with an RP-LC retention time of 738 s.
For `C=CCN(CC=C)S(=O)(=O)c1ccc(C(=O)Nc2nc3c(s2)CCc2ccccc2-3)cc1` the value was 1240 s; for `O=C(CCCSc1ccc(NC(=O)c2cccs2)nn1)NCc1ccco1`, 714 s.
For `CCN(CC)S(=O)(=O)c1cccc(-c2nnc(-c3ccccc3Br)o2)c1` the value was 1100 s; for `O=C(CCc1nnn2c1CN(C(=O)c1ccccc1)CC2)NC1CC1`, 604 s.
On to `O=C(c1ccc(Cn2cncn2)cc1)N1CCN(c2ccc(F)cc2)CC1`, for which the RP-LC retention time was 700 s.
For `CC1=C(c2ccc(C)c(C)c2)S(=O)(=O)N=C1N1CCC(C(=O)NCCN2CCCC2)CC1` the value was 661 s.
`O=C(Nc1cccn2c(C3CCC3)nnc12)c1ccccn1`: the RP-LC retention time is 781 s.
For the compound `CC(C)n1c(CN2CCCC2)nc2cc(NC(=O)c3ccco3)ccc21`, the RP-LC retention time amounted to 610 s.
Compound `Cn1cc(-c2ccncc2)cc1C(=O)NCc1cccc(F)c1` came in with an RP-LC retention time of 630 s.
The figure for `Cc1ccc(-c2nnc(-c3cccc(S(=O)(=O)N(C)C)c3)o2)cc1` is 986 s.
The figure for `O=C(NCCN1CCc2ccccc2C1)c1cn2nc(Cl)ccc2n1` is 618 s.
The compound `CCn1cc(CC(=O)NC(C)c2ccc(F)cc2)c2cccnc21` (stereo not given) displayed an RP-LC retention time of 732 s.
For `Cc1ccc(NC(=O)Cn2nc(N3CCCC(C)C3)c3ccccc3c2=O)c(C)c1` (stereo not given) the value was 1150 s; for `CCCCCC#CC[C@@H](O)/C=C/C=C/C=C\[C@@H](O)CCCC(=O)O`, 991 s.
For `C=CCN1CC(=O)N2Cc3[nH]c4ccccc4c3C[C@H]2C1=O`, the RP-LC retention time worked out at 708 s.
The figure for `CCn1ccc2sc(C)c(C(=O)NCCCN3CCCC3=O)c2c1=O` is 594 s; for `O=C(Cn1cnc2c(sc3nc(-c4ccccc4)ccc32)c1=O)Nc1ccc(Br)cc1` it is 1120 s.
The figure for `CC1CCCN(c2ccc(NC(=O)C(C)C)c(C(=O)O)c2)C1` (stereo not given) is 627 s; for `O=C(Cc1ccsc1)NCCC1CCN(C(=O)Nc2cc(F)ccc2F)CC1` it is 915 s; for `CN1CCN(CCNC(=O)CCCn2c(=O)c3cccn3c3ccc(F)cc32)CC1` it is 588 s.
For the compound `COc1ccc(C(=O)N2C[C@@H]3C[C@H](NC(=O)c4cccs4)[C@H]2C3)c(C)c1`, the RP-LC retention time was determined as 628 s.
Regarding `O=S(=O)(c1cccs1)N1CCN(c2cnn3cnnc3c2)CC1`, the RP-LC retention time came out at 652 s.
For `CCN1c2cc(Cl)ccc2C(=O)NC12CCN(C(=O)Nc1ccc3c(c1)OCO3)CC2` the value was 826 s.
For `Cc1ccccc1CN1CCC2(CC1)CC(O)(c1ccccn1)CCO2` (stereo not given) the value was 570 s.
Compound `O=c1c2sccc2n(Cc2nc(-c3ccc(C(F)(F)F)cc3)no2)c(=O)n1-c1ccc(F)cc1` gave an RP-LC retention time of 1080 s.
For `COc1cc(C(=O)N2CCC[C@@H]2C(=O)NCc2csc(-c3ccccc3)n2)cc(OC)c1OC` the value was 769 s; for `Cc1cc(Nc2nc(C(=O)NCCCN3CCOCC3)cc3occc23)ccc1Br`, 724 s; for `COc1cccc(CNC(=O)C2(C)CCN(C(=O)Nc3cc(OC)c(OC)c(OC)c3)CC2)c1`, 732 s.
For the compound `O=S(=O)(c1ccc(F)c(F)c1)N1CCC(CN2CCCCCC2)CC1`, the RP-LC retention time worked out at 666 s.
Take `CC(=O)Nc1cccc(N2CC(C(=O)NCc3cccc(Br)c3)CC2=O)c1` (stereo not given): the RP-LC retention time was determined as 703 s.
The figure for `CCOc1ccc(-c2ccc(=O)n(CCc3nc(-c4ccc(SC)cc4)no3)n2)cc1` is 1030 s; for `CCc1ccc(NC(=O)c2c(O)c3cccnc3n(-c3ccc(F)cc3)c2=O)cc1` it is 1230 s; for `CC(C)(C)NC(=O)NC1CCN(C(=O)C2CC2)C1` (stereo not given) it is 610 s.
The figure for `Cc1cc(C)c2c(N(C)C)nc(C(=O)Nc3ccc(N4CCOCC4)cc3)nc2n1` is 595 s; for `CN(C)c1nc2cc(C(=O)N3CCOCC3)sc2n1-c1ccccc1` it is 614 s.
For `CN1C(=O)c2ccccc2C(C(=O)N2CCN(c3ccccn3)CC2)C1c1cccs1` (stereo not given) the value was 608 s; for `Cc1cc(C(F)F)n2nc(C(=O)N3CCCC3c3ccc(F)cc3)nc2n1` (stereo not given), 808 s.
Take `CCN1CCN(C2CCN(C(=O)c3cc(C)cc(C)c3)CC2)C1=O`: the RP-LC retention time is 728 s.
The figure for `Cc1ncnc2c1CCC(=O)N2Cc1cccnc1` is 539 s; for `O=C(CCSc1nnnn1-c1ccc(Cl)cc1)Nc1nccs1` it is 776 s.
The figure for `O=C(CCn1c(=O)oc2ccccc21)Nc1nc(-c2ccccc2)cs1` is 961 s; for `CN1CCN(c2ccc(-c3nc(-c4cccc(F)c4)no3)cn2)CC1` it is 685 s; for `CCOC(=O)c1c(S(=O)(=O)N2CCC(C(=O)Nc3ccc(OC)cc3)CC2)c(C)n(C)c1C` it is 804 s.
The figure for `CC(=O)N1CCc2cc(S(=O)(=O)C(C)CC(=O)N3CCN(c4ccc(Cl)cc4)CC3)ccc21` (stereo not given) is 870 s; for `COc1ccc(CNC(=O)CSc2nnc(-c3ccccc3)n2-n2cccc2)cc1` it is 775 s.
With `CC(C)CC(=O)Nc1ccc(-n2cnc(C(=O)NC3CCCC3)c2)nc1`, the RP-LC retention time is 772 s.
The figure for `CCN1C(=O)CCc2cc(NS(=O)(=O)c3ccc4c(c3)OCCO4)ccc21` is 794 s; for `O=C(NCc1cccnc1)c1nc2ccccn2c1-c1ccsc1` it is 589 s.
The figure for `CN(C(=O)Cn1nc(Cc2ccncc2)c2ccccc2c1=O)C1CCCCC1` is 640 s; for `CSc1ccc(CN2CCN(c3cnn4c(C5CC5)nnc4c3)CC2)cc1` it is 603 s; for `Cc1cc(C)cc(Oc2nccn3c(=O)n(CC(=O)Nc4cccc(Cl)c4C)nc23)c1` it is 992 s.
For the compound `CC(C)NC(=O)CN1C(=O)COc2ccc(C(=O)N3CCCCCC3)cc21`, the RP-LC retention time worked out at 680 s.
`O=C(Nc1ccc(F)cc1)C1CCN(C(=O)c2ncn3c2COC(c2ccc(F)cc2)C3)CC1` (stereo not given) returned an RP-LC retention time of 798 s.
`CC1CCN(C(=O)c2ccc3c(=O)n4c(nc3c2)CCCC4)CC1` came in with an RP-LC retention time of 707 s.
For `COCCC1(NC(=O)c2ccoc2)CCN(CC2CC2)CC1` the value was 581 s; for `Cc1ccc(-c2cc(C(=O)N3CCC(NC(=O)c4cccs4)CC3)[nH]n2)c(C)c1`, 763 s; for `COc1ccc(-c2ncccc2CNS(=O)(=O)Cc2cc(F)cc(F)c2)cc1`, 694 s.
For `Cc1ccc(-n2c(=O)c3c(cc(C)n3C)n(CC(=O)N3CCc4ccccc43)c2=O)cc1` the value was 928 s.
The figure for `O=C(Nc1nnc(SCc2nnc(-c3ccc4c(c3)OCO4)o2)s1)c1ccccc1` is 857 s.
On to `Cc1ccc(NC(=O)C2CC(=O)N(CCc3c[nH]c4ccc(F)cc34)C2)c(C)c1` (stereo not given), for which the RP-LC retention time came to 847 s.
The figure for `CCOc1ccc(Cc2nc(-c3ccc4c(c3)oc(=O)n4C)no2)cc1OCC` is 976 s; for `Cc1ccc(N2CC(c3noc(-c4ccc(Cl)cc4)n3)CC2=O)cc1` (stereo not given) it is 1110 s.
`CC1(C)Cc2cccc(OCC(=O)N3CCN(CCn4cccn4)CC3)c2O1` had an RP-LC retention time of 583 s.
In the case of `Cn1cccc1C(=O)C(=O)NCc1cccc(Br)c1`, the RP-LC retention time turned out to be 918 s.
For `CC(C)N1CCN(C(=O)C2CC(=O)N(CCc3ccccc3)C2)CC1` (stereo not given) the value was 573 s; for `CCOC(=O)Cn1c(=O)c2c(nc3n2CC(C)CN3c2ccc(OC)cc2)n(C)c1=O` (stereo not given), 888 s.
In turn, `O=C(COc1ccc(Cl)cc1)NCC1(c2ccc(F)cc2)CC1` gave an RP-LC retention time of 988 s.
For `Cc1cc(-c2nnc(C3CC3)o2)c(C)n1CC(=O)Nc1ccc(F)cc1` the value was 792 s.
`CC1(C(=O)N2CC(F)(F)C[C@H]2c2nc(-c3ccncc3)no2)CC1`: the RP-LC retention time stood at 735 s.
For `C=Cc1ccc(CN2N=C(C(=O)N3CCOCC3)S(=O)(=O)c3ccc(Cl)cc32)cc1` the value was 951 s; for `COCC(=O)NC1CCC12CCN(C(=O)c1ccoc1)CC2` (stereo not given), 643 s.
The compound `O=C1CC(c2noc(-c3ccccc3F)n2)CN1c1ccc(F)c(Cl)c1` (stereo not given) gave an RP-LC retention time of 1050 s.
As for `CCOc1ccc(NC(=O)N2CCC(N(C)C(C)C)CC2)cc1`, the RP-LC retention time was 588 s.
For `Cc1ccc(S(=O)(=O)N2C[C@@H](F)C[C@H]2C(=O)N2CCCCC2)cc1Cl` the value was 826 s; for `COc1ccc(-n2cc(C(=O)O)nn2)cc1OC`, 638 s; for `COc1ccc(S(=O)(=O)Nc2cc(-c3cn4ccccc4n3)ccc2C)cc1`, 797 s.

These data come from the METLIN SMRT retention time set (Domingo-Almenara et al. 2019).
